Experiments:
Test in all cases: Test D controlled growth environment herbicide test, pre- and postemergence
Assay type in all cases: in vivo
[1] = tested on: pigweed (Amaranthus retroflexus)
Summary of the method: (§1)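 Pre-emergence: seeds sown in silt loam soil were sprayed with compound in a non-phytotoxic solvent mix containing surfactant. Post-emergence: plants at 2 to 18 cm (1- to 4-leaf stage) in peat moss/vermiculite medium got the same formulation. Visual 0–100 rating versus controls after 14 to 21 d.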

[2] = tested on: canarygrass (Phalaris minor)
Summary of the method: as §1

[3] = tested on: barley, winter (winter barley, Hordeum vulgare)
Summary of the method: as §1

[4] = tested on: bluegrass (annual bluegrass, Poa annua)
Summary of the method: as §1

[5] = tested on: galium (catchweed bedstraw, Galium aparine)
Summary of the method: as §1

[6] = tested on: wheat, spring (spring wheat, Triticum aestivum)
Summary of the method: as §1

[7] = tested on: lambsquarters (Chenopodium album)
Summary of the method: as §1

[8] = tested on: ryegrass, Italian (Italian ryegrass, Lolium multiflorum)
Summary of the method: as §1

[9] = tested on: buckwheat, wild (wild buckwheat, Polygonum convolvulus)
Summary of the method: as §1

[10] = tested on: bromegrass, downy (downy bromegrass, Bromus tectorum)
Summary of the method: as §1

[11] = tested on: windgrass (Apera spica-venti)
Summary of the method: as §1

[12] = tested on: blackgrass (Alopecurus myosuroides)
Summary of the method: as §1

[13] = tested on: foxtail, green (green foxtail, Setaria viridis)
Summary of the method: as §1

[14] = Postemergence, 31 g ai/ha, scale 0 to 100 (0 no effect, 100 complete control)
[15] = Postemergence, 125 g ai/ha, visual rating on scale 0 (no effect) to 100 (complete control), 14 to 21 d
[16] = Postemergence, 250 g ai/ha, scale 0 to 100 (0 no effect, 100 complete control)
[17] = Preemergence, 62 g ai/ha, scale 0 to 100 (0 no effect, 100 complete control)
[18] = Preemergence, 125 g ai/ha, scale 0 to 100 (0 no effect, 100 complete control)
[19] = Preemergence, 250 g ai/ha, scale 0 to 100, 0 no effect, 100 complete control
[20] = postemergence, 62 g ai/ha, scale 0 to 100, 0 no effect, 100 complete control

COC(=O)Oc1c(C)nn(C)c(=O)c1-c1c(C)sc2ccc(C)cc12 [Compound 80]
Pigweed plant response rating [1, 14]: 100
Plant response rating, Pigweed [1, 15]: 100
Plant response rating, Pigweed [1, 16]: 100
Plant response rating (scale of 0 to 100), Pigweed ([1]; Preemergence, 31 g ai/ha): 100
Plant response rating, Pigweed [1, 17]: 100
Plant response rating, Pigweed [1, 18]: 100
Plant response rating, Pigweed [1, 19]: 100
Plant response rating, Pigweed [1, 20]: 100
Canarygrass plant response rating [2, 14]: 55
Plant response rating, Canarygrass [2, 15]: 85
Plant response rating, Canarygrass [2, 16]: 90
Plant response rating (scale of 0 to 100), Canarygrass ([2]; Preemergence, 31 g ai/ha): 85
Plant response rating, Canarygrass [2, 17]: 90
Plant response rating, Canarygrass [2, 18]: 90
Plant response rating, Canarygrass [2, 19]: 100
Plant response rating, Canarygrass [2, 20]: 80
Barley, Winter plant response rating [3, 14]: 0
Plant response rating, Barley, Winter [3, 15]: 5
Plant response rating, Barley, Winter [3, 16]: 15
Plant response rating (scale of 0 to 100), Barley, Winter ([3]; Preemergence, 31 g ai/ha): 0
Plant response rating, Barley, Winter [3, 17]: 0
Plant response rating, Barley, Winter [3, 18]: 15
Plant response rating, Barley, Winter [3, 19]: 45
Plant response rating, Barley, Winter [3, 20]: 0
Bluegrass plant response rating [4, 14]: 15
Plant response rating, Bluegrass [4, 15]: 35
Plant response rating, Bluegrass [4, 16]: 45
Plant response rating (scale of 0 to 100), Bluegrass ([4]; Preemergence, 31 g ai/ha): 20
Plant response rating, Bluegrass [4, 17]: 55
Plant response rating, Bluegrass [4, 18]: 75
Plant response rating, Bluegrass [4, 19]: 75
Plant response rating, Bluegrass [4, 20]: 35
Galium plant response rating [5, 14]: 90
Plant response rating, Galium [5, 15]: 95
Plant response rating, Galium [5, 16]: 100
Plant response rating (scale of 0 to 100), Galium ([5]; Preemergence, 31 g ai/ha): 25
Plant response rating, Galium [5, 17]: 40
Plant response rating, Galium [5, 18]: 80
Plant response rating, Galium [5, 19]: 90
Plant response rating, Galium [5, 20]: 95
Wheat, Spring plant response rating [6, 14]: 0
Plant response rating, Wheat, Spring [6, 15]: 15
Plant response rating, Wheat, Spring [6, 16]: 30
Plant response rating (scale of 0 to 100), Wheat, Spring ([6]; Preemergence, 31 g ai/ha): 0
Plant response rating, Wheat, Spring [6, 17]: 0
Plant response rating, Wheat, Spring [6, 18]: 25
Plant response rating, Wheat, Spring [6, 19]: 35
Plant response rating, Wheat, Spring [6, 20]: 10
Lambsquarters plant response rating [7, 14]: 95
Plant response rating, Lambsquarters [7, 15]: 100
Plant response rating, Lambsquarters [7, 16]: 100
Plant response rating (scale of 0 to 100), Lambsquarters ([7]; Preemergence, 31 g ai/ha): 100
Plant response rating, Lambsquarters [7, 17]: 100
Plant response rating, Lambsquarters [7, 18]: 100
Plant response rating, Lambsquarters [7, 19]: 100
Plant response rating, Lambsquarters [7, 20]: 100
Ryegrass, Italian plant response rating [8, 14]: 85
Plant response rating, Ryegrass, Italian [8, 15]: 98
Plant response rating, Ryegrass, Italian [8, 16]: 100
Plant response rating (scale of 0 to 100), Ryegrass, Italian ([8]; Preemergence, 31 g ai/ha): 90
Plant response rating, Ryegrass, Italian [8, 17]: 90
Plant response rating, Ryegrass, Italian [8, 18]: 95
Plant response rating, Ryegrass, Italian [8, 19]: 100
Plant response rating, Ryegrass, Italian [8, 20]: 95
Buckwheat, Wild plant response rating [9, 14]: 100
Plant response rating, Buckwheat, Wild [9, 15]: 100
Plant response rating, Buckwheat, Wild [9, 16]: 100
Plant response rating (scale of 0 to 100), Buckwheat, Wild ([9]; Preemergence, 31 g ai/ha): 0
Plant response rating, Buckwheat, Wild [9, 17]: 25
Plant response rating, Buckwheat, Wild [9, 18]: 20
Plant response rating, Buckwheat, Wild [9, 19]: 20
Plant response rating, Buckwheat, Wild [9, 20]: 100
Bromegrass, Downy plant response rating [10, 14]: 55
Plant response rating, Bromegrass, Downy [10, 15]: 70
Plant response rating, Bromegrass, Downy [10, 16]: 75
Plant response rating (scale of 0 to 100), Bromegrass, Downy ([10]; Preemergence, 31 g ai/ha): 30
Plant response rating, Bromegrass, Downy [10, 17]: 35
Plant response rating, Bromegrass, Downy [10, 18]: 75
Plant response rating, Bromegrass, Downy [10, 19]: 85
Plant response rating, Bromegrass, Downy [10, 20]: 65
Windgrass plant response rating [11, 14]: 75
Plant response rating, Windgrass [11, 15]: 95
Plant response rating, Windgrass [11, 16]: 98
Plant response rating (scale of 0 to 100), Windgrass ([11]; Preemergence, 31 g ai/ha): 75
Plant response rating, Windgrass [11, 17]: 90
Plant response rating, Windgrass [11, 18]: 95
Plant response rating, Windgrass [11, 19]: 98
Plant response rating, Windgrass [11, 20]: 90
Blackgrass plant response rating [12, 14]: 75
Plant response rating, Blackgrass [12, 15]: 90
Plant response rating, Blackgrass [12, 16]: 90
Plant response rating (scale of 0 to 100), Blackgrass ([12]; Preemergence, 31 g ai/ha): 70
Plant response rating, Blackgrass [12, 17]: 75
Plant response rating, Blackgrass [12, 18]: 80
Plant response rating, Blackgrass [12, 19]: 85
Plant response rating, Blackgrass [12, 20]: 80
Foxtail, Green plant response rating [13, 14]: 70
Plant response rating, Foxtail, Green [13, 15]: 90
Plant response rating, Foxtail, Green [13, 16]: 95
Plant response rating (scale of 0 to 100), Foxtail, Green ([13]; Preemergence, 31 g ai/ha): 20
Plant response rating, Foxtail, Green [13, 17]: 80
Plant response rating, Foxtail, Green [13, 18]: 100
Plant response rating, Foxtail, Green [13, 19]: 100
Plant response rating, Foxtail, Green [13, 20]: 90

Source: patent US10597388B2, “Pyridazinone herbicides” (FMC CORPORATION, priority 2014, dated 2020)
